Laboratory results: publication PMC6691788, “Design and synthesis of phthalazine-based compounds as potent anticancer agents with potential antiangiogenic activity via VEGFR-2 inhibition” (Journal of Enzyme Inhibition and Medicinal Chemistry, 2019)

What was measured:
Experiment in all cases: NCI 60 cell panel SRB screen
[1] = tested on: RXF 393; assay type: cell-based; settings: Homo sapiens
[2] = tested on: MDA-MB-468; assay type: cell-based; settings: Homo sapiens
Description: The human tumor cell lines of the cancer-screening panel were grown in RPMI 1640 medium containing 5% fetal bovine serum and […] L-glutamine. For a typical screening experiment, cells are inoculated into 96 well microtiter plates in 100 ml at plating densities ranging from 5000 to 40,000 cells/well depending on the doubling time of individual cell lines. After cell inoculation, the microtiter plates are incubated at 37 °C, 5% CO2, 95% air and 100%
relative humidity for 24 h prior to addition of experimental drugs. After 24 h, two plates of each cell line are fixed in situ with TCA, to represent a measurement of the cell population for each cell line at the time of drug addition (Tz). Experimental drugs are dissolved in dimethyl sulfoxide at 400-fold the desired final maximum test concentration and stored frozen prior to use. At the time of drug addition, an aliquot of frozen concentrate is thawed and diluted to twice the desired final maximum test concentration with complete medium containing […] Gentamicin. Additional four, 10-fold or ½log serial dilutions are made to provide a total of five drug concentrations plus control. Aliquots of […] of these different drug dilutions are added to the appropriate microtiter wells already containing 100 ml of medium, resulting in the required final drug concentrations. Following drug addition, the plates are incubated for an additional 48 h at 37 °C, 5% CO2, 95% air, and 100% relative humidity. For adherent cells, the assay is terminated by the addition of cold TCA. Cells are fixed in situ by the gentle addition of […] of cold 50% (w/v) TCA (final concentration,10% TCA) and incubated for 60 min at 4 °C. The supernatant is discarded, and the plates are washed five times with tap water and air dried. Sulforhodamine B (SRB) solution (100 ml) at 0.4% (w/v) in 1% acetic acid is added to each well, and plates are incubated for 10 min at room temperature. After staining, unbound dye is removed by washing five times with 1% acetic acid and the plates are air dried. Bound stain is subsequently dissolved with 10 μM trizma base, and the absorbance is read on an automated plate reader at a wavelength of 515 nm. For suspension cells, the methodology is the same except that the assay is terminated by fixing settled cells at the bottom of the wells by gently adding […] of 80% TCA (final concentration, 16% TCA).
Using the seven absorbance measurements [time zero, (Tz), control growth, (C), and test growth in the presence of drug at the five concentration levels (Ti)], the percentage growth is calculated at each of the drug concentrations levels. Percentage growth inhibition is calculated as: [(Ti -Tz)/(C - Tz)] x 100 for concentrations for which Ti>/ ¼ Tz and [(Ti -Tz) / Tz] x100 for concentrations for which Ti <Tz.
Three dose response parameters are calculated for each experimental agent. Growth inhibition of 50% (GI50) is calculated from [(Ti -Tz)/(C - Tz)] x 100 =50, which is the drug concentration resulting in a 50% reduction in the net protein increase (as measured by SRB staining) in control cells during the drug incubation. The drug concentration resulting in total growth inhibition (TGI) is calculated from Ti ¼ Tz. The LC50 (concentration of drug resulting in a 50% reduction in the measured protein at the end of the drug treatment as compared to that at the beginning) indicating a net loss of cells following treatment is calculated from [(Ti - Tz) / Tz] x100 = -50. Values are calculated for each of these three parameters if the level of activity is reached; however, if the effect is not reached or is exceeded, the value for that parameter is expressed as greater or less than the maximum or minimum concentration tested.

[3] = tested on: UACC-257; assay type: cell-based; settings: Homo sapiens
[4] = tested on: TK-10; assay type: cell-based, human
[5] = tested on: HL-60(TB); assay type: cell-based; settings: Homo sapiens
[6] = tested on: OVCAR-3; assay type: cell-based; settings: Homo sapiens
[7] = tested on: SF-268; assay type: cell-based; settings: Homo sapiens
[8] = tested on: A549/ATCC; assay type: cell-based; settings: Homo sapiens
[9] = tested on: HT29; assay type: cell-based; settings: Homo sapiens, HT-29
[10] = tested on: PC-3; assay type: cell-based; settings: Homo sapiens
[11] = tested on: MOLT-4; assay type: cell-based; settings: Homo sapiens
[12] = tested on: NCI/ADR-RES; assay type: cell-based; settings: Homo sapiens
[13] = tested on: OVCAR-8; assay type: cell-based; settings: Homo sapiens
[14] = tested on: NCI-H460; assay type: cell-based; settings: Homo sapiens
[15] = tested on: HCC-2998; assay type: cell-based; settings: Homo sapiens
[16] = tested on: KM12; assay type: cell-based; settings: Homo sapiens
[17] = tested on: UO-31; assay type: cell-based; settings: Homo sapiens
[18] = tested on: HOP-92; assay type: cell-based; settings: Homo sapiens
[19] = tested on: SK-OV-3; assay type: cell-based; settings: Homo sapiens
[20] = 5 log dose, 48 h, read-out: LC50 (the source's name)
[21] = single dose 10 μM, read-out: percent cell growth promotion

Q: With `O=C(Nc1ccc(Cl)cc1)Nc1ccc(Oc2nncc3ccccc23)cc1` [Compound 7b, 1–(4-Chlorophenyl)-3–(4-(phthalazin-1-yloxy)phenyl)urea] as the molecule, how does the GI50 ([1]; RXF 393, 5 log dose) read?
A: 0.31 µM

Q: What about the IC (TGI) ([1]; RXF 393, 5 log dose) of the same molecule?
A: 1.05 µM

Q: What about the CC50 ([1]; RXF 393, 5 log dose, 48 h, read-out: LC50 (the source's name)) of the same molecule?
A: 3.74 µM

Q: What about the activity at 10 µM ([1]; RXF 393, single dose 10 μM, read-out: percent cell growth promotion) of the same molecule?
A: -91.2%

Q: What about the activity at 10 µM ([2]; MDA-MB-468, MDA-MBA-468, single dose 10 μM, read-out: percent cell growth promotion) of the same molecule?
A: -76.2%

Q: And the GI50 ([2]; MDA-MB-468, 5 log dose)?
A: 0.75 µM

Q: What about the IC (TGI) ([2]; MDA-MB-468, 5 log dose) of the same molecule?
A: 2.52 µM

Q: And the CC50 ([2]; MDA-MB-468, 5 log dose, 48 h, read-out: LC50 (the source's name))?
A: 7.18 µM

Q: What about the GI50 ([3]; UACC-257) of the same molecule?
A: 0.15 µM

Q: And the IC (TGI) ([3]; UACC-257, read-out: TGI)?
A: 4.04 µM

Q: And the activity at 10 µM ([3]; UACC-257, read-out: percent cell growth promotion)?
A: 34.4%

Q: And the CC50 ([3]; UACC-257, 5 log dose, 48 h, read-out: LC50 (the source's name))?
A: 12.9 µM

Q: What about the GI50 ([4]; Homo sapiens, TK-10, 5 log dose) of the same molecule?
A: 2.12 µM

Q: And the CC50 ([4]; Homo sapiens, TK-10, 5 log dose, 48 h, read-out: LC50 (the source's name))?
A: 8.64 µM

Q: What about the activity at 10 µM ([4]; Homo sapiens, TK-10, single dose 10 μM, read-out: percent cell growth promotion) of the same molecule?
A: 27.5%

Q: And the TGI ([4]; TK-10, 5 log dose)?
A: 4.28 µM

Q: And the GI50 ([5]; 5 log dose)?
A: 1.08 µM

Q: And the IC (TGI) ([5]; 5 log dose)?
A: 13.4 µM

Q: And the CC50 [5, 20]?
A: > 100 µM

Q: And the activity at 10 µM [5, 21]?
A: 3.65%

Q: What about the GI50 ([6]; OVCAR-3, 5 log dose) of the same molecule?
A: 0.35 µM

Q: What about the IC (TGI) ([6]; OVCAR-3, 5 log dose) of the same molecule?
A: 1.15 µM

Q: What about the CC50 ([6]; OVCAR-3, 5 log dose, 48 h, read-out: LC50 (the source's name)) of the same molecule?
A: 3.95 µM

Q: And the activity at 10 µM ([6]; OVCAR-3, single dose 10 μM, read-out: percent cell growth promotion)?
A: -62.8%

Q: And the GI50 ([7]; SF-268, 5 log dose)?
A: 1.35 µM

Q: And the IC (TGI) ([7]; SF-268, 5 log dose)?
A: 7.21 µM

Q: And the CC50 ([7]; SF-268, 5 log dose, 48 h, read-out: LC50 (the source's name))?
A: 70.2 µM

Q: And the activity at 10 µM ([7]; SF-268, single dose 10 μM, read-out: percent cell growth promotion)?
A: 12.6%

Q: And the GI50 ([8]; 5 log dose)?
A: 2.81 µM

Q: And the IC (TGI) ([8]; 5 log dose)?
A: 11.5 µM

Q: What about the LC50 (concentration killing 50% of cells) ([8]; 5 log dose, 48 h) of the same molecule?
A: > 100 µM

Q: And the activity at 10 µM [8, 21]?
A: 40%

Q: What about the GI50 ([9]; HT29, 5 log dose) of the same molecule?
A: 0.46 µM

Q: What about the IC (TGI) ([9]; HT29, 5 log dose) of the same molecule?
A: 2.39 µM

Q: What about the CC50 ([9]; HT29, 5 log dose, 48 h, read-out: LC50 (the source's name)) of the same molecule?
A: > 100 µM

Q: What about the activity at 10 µM ([9]; HT29, single dose 10 μM, read-out: percent cell growth promotion) of the same molecule?
A: 0.52%

Q: What about the GI50 ([10]; PC-3, 5 log dose) of the same molecule?
A: 1.64 µM

Q: And the IC (TGI) ([10]; PC-3, 5 log dose)?
A: 6.08 µM

Q: And the CC50 ([10]; PC-3, 5 log dose, 48 h, read-out: LC50 (the source's name))?
A: 35.6 µM

Q: What about the activity at 10 µM ([10]; PC-3, single dose 10 μM, read-out: percent cell growth promotion) of the same molecule?
A: -29%

Q: What about the GI50 ([11]; MOLT-4, 5 log dose) of the same molecule?
A: 0.37 µM

Q: And the IC (TGI) ([11]; MOLT-4, 5 log dose)?
A: > 100 µM

Q: And the CC50 ([11]; MOLT-4, 5 log dose, 48 h, read-out: LC50 (the source's name))?
A: > 100 µM

Q: What about the activity at 10 µM ([11]; MOLT-4, single dose 10 μM, read-out: percent cell growth promotion) of the same molecule?
A: 3.99%

Q: What about the GI50 ([12]; 5 log dose) of the same molecule?
A: 2.63 µM

Q: And the IC (TGI) ([12]; 5 log dose)?
A: > 100 µM

Q: What about the CC50 [12, 20] of the same molecule?
A: > 100 µM

Q: What about the activity at 10 µM [12, 21] of the same molecule?
A: 37.6%

Q: What about the GI50 ([13]; OVCAR-8, 5 log dose) of the same molecule?
A: 1.1 µM

Q: What about the IC (TGI) ([13]; OVCAR-8, 5 log dose) of the same molecule?
A: 13.6 µM

Q: What about the CC50 ([13]; OVCAR-8, 5 log dose, 48 h, read-out: LC50 (the source's name)) of the same molecule?
A: > 100 µM

Q: And the activity at 10 µM ([13]; OVCAR-8, single dose 10 μM, read-out: percent cell growth promotion)?
A: 19.4%

Q: What about the GI50 ([14]; NCI-H460, 5 log dose) of the same molecule?
A: 2.79 µM

Q: What about the IC (TGI) ([14]; NCI-H460, 5 log dose) of the same molecule?
A: 8.32 µM

Q: And the LC50 (concentration causing 50% cell kill) ([14]; NCI-H460, 5 log dose, 48 h)?
A: 45.5 µM

Q: What about the activity at 10 µM ([14]; NCI-H460, single dose 10 μM, read-out: percent cell growth promotion) of the same molecule?
A: 21.5%

Q: And the GI50 ([15]; HCC-2998, 5 log dose)?
A: 1.84 µM

Q: What about the IC (TGI) ([15]; HCC-2998, 5 log dose) of the same molecule?
A: 3.48 µM

Q: What about the LC50 (50% lethal concentration) ([15]; HCC-2998, 5 log dose, 48 h) of the same molecule?
A: 6.57 µM

Q: And the activity at 10 µM ([15]; HCC-2998, single dose 10 μM, read-out: percent cell growth promotion)?
A: -42.2%

Q: And the GI50 ([16]; KM12, 5 log dose)?
A: 0.88 µM

Q: And the IC (TGI) ([16]; KM12, 5 log dose)?
A: 2.65 µM

Q: And the CC50 ([16]; KM12, 5 log dose, 48 h, read-out: LC50 (the source's name))?
A: 7.38 µM

Q: And the activity at 10 µM ([16]; KM12, single dose 10 μM, read-out: percent cell growth promotion)?
A: -32.3%

Q: And the GI50 ([17]; UO-31, 5 log dose)?
A: 1.29 µM

Q: What about the IC (TGI) ([17]; UO-31, 5 log dose) of the same molecule?
A: 2.67 µM

Q: And the activity at 10 µM ([17]; UO-31, single dose 10 μM, read-out: percent cell growth promotion)?
A: -51.6%

Q: What about the GI50 ([18]; HOP-92, 5 log dose) of the same molecule?
A: 1.64 µM

Q: What about the IC (TGI) ([18]; HOP-92, 5 log dose) of the same molecule?
A: 4.37 µM

Q: And the CC50 ([18]; HOP-92, 5 log dose, 48 h, read-out: LC50 (the source's name))?
A: 17.1 µM

Q: And the activity at 10 µM ([18]; HOP-92, single dose 10 μM, read-out: percent cell growth promotion)?
A: 12.9%

Q: And the GI50 ([19]; SK-OV-3, 5 log dose)?
A: 1.74 µM

Q: What about the IC (TGI) ([19]; SK-OV-3, 5 log dose) of the same molecule?
A: 5.48 µM

Q: And the CC50 ([19]; SK-OV-3, 5 log dose, 48 h, read-out: LC50 (the source's name))?
A: 27.2 µM

Q: What about the activity at 10 µM ([19]; SK-OV-3, single dose 10 μM, read-out: percent cell growth promotion) of the same molecule?
A: 56.7%
